Source: US20080311212A1, “CRYSTALLINE ISOXAZOLE DERIVATIVE AND PHARMACEUTICAL PREPARATION THEREOF” (Dainippon Sumitomo Pharma Co., Ltd., priority 2001, published 2008)

Legend:
Type in all cases: physicochemical
[1] = Dry pneumatic grinding of crystals 1 (A-O Jet Mill): amount adhering to inside of apparatus; settings: 7 g crystals charged, pneumatic grinding at 0.49 MPa
Excerpt: Crystals were charged into an A-O Jet Mill (mfd. by Seishin Enterprise Co., Ltd.) and subjected to pneumatic grinding at a forcing pressure of 0.49 MPa and a grinding pressure of 0.49 MPa.

[2] = Dry pneumatic grinding of crystals 2 (Jet O Mill): particle size distribution of ground crystals; settings: one run of dry pneumatic grinding, 0.44-0.49 MPa, laser diffraction (dry measurement)
Excerpt: Crystals were charged into a Jet 0 Mill Model JOMO101 (mfd. by Seishin Enterprise Co., Ltd.) and subjected to pneumatic grinding at a forcing pressure and a grinding pressure (which had been set at the same pressure) of 0.44 MPa to 0.49 MPa. […] A laser diffraction particle size distribution meter (dry measurement) was used for measuring the particle size distribution. It has already been confirmed that repeated grinding or the increase of the grinding pressure is necessary for further particle size reduction.

[3] = Wet high-pressure grinding of crystals (Microfluidizer): particle size distribution of ground crystals; settings: wet high-pressure grinding in water, 100 MPa, laser diffraction (wet measurement)
Method: Crystals were charged into Microfluidizer Model M110Y (mfd. by Mizuho Industrial Co., Ltd.) together with water and subjected to high-pressure grinding. […] In this case, the α type crystals were solidified during the grinding. […] The particle size distribution was measured by dispersing the ground crystals in water in an agate mortar. A laser diffraction particle size distribution meter (wet measurement) was used for measuring the particle size distribution.

[4] = Crystal type stability on grinding / in aqueous suspension; settings: for change of crystal type during grinding: α: wet grinding under high-pressure conditions, suspended in water, β: pneumatic and wet grinding
Excerpt: When the α type crystals were subjected to pneumatic grinding, they adhered remarkably to the inside of a grinding apparatus. Therefore, their pulverization to a desirable size by one run of grinding operation was difficult, so that it was necessary to grind them repeatedly several times. Since it often became necessary to remove the crystals adhering to the inside, the grinding efficiency and the yield were low.
When the β type crystals were subjected to pneumatic grinding, they hardly adhered to the inside of a grinding apparatus, were easy to handle in a process of their formulation into a pharmaceutical preparation, and could be continuously ground. The β type crystals could easily be ground also by a wet grinding method and made it possible to produce finer powder that could be formulated into a pharmaceutical preparation.
The β type crystals of the present invention may be obtained also by stirring phosphate or a type crystals of the isoxazole derivative of the formula 1 in a suspended state in water for a definite time. In the case of the phosphate, the β type crystals could be obtained, for example, by stirring the phosphate at 50° C. for about 5 hours. […] So long as seed crystals for the β type crystals are used, it is also possible to produce the β type crystals by using any of hydrophobic organic solvents such as aromatic hydrocarbons (e.g. toluene and benzene), ethers (e.g. t-butyl methyl ether, diisopropyl ether and diethyl ether), aliphatic hydrocarbons (e.g. cyclohexane, hexane and heptane), halogen-containing solvents (e.g. chloroform, methylene chloride and 1,2-dichloroethane) and esters (e.g. ethyl acetate). For example, the isoxazole derivative of the formula 1 may be crystallized by dissolving the derivative in a mixed solvent of toluene and 2-propanol and adding hexane thereto.

| SMILES | Adhering amount [1] [g] | Undersize particle D50% particle size ([2]; D50%) [μm] | Undersize particle D50% particle size ([2]; first D50% line) [μm] | Undersize particle D50% particle size ([3]; D50%) [μm] | Undersize particle D50% particle size ([3]; first D50% line) [μm] | thermodynamic stability of crystal type ([4]; stirring phosphate or α type crystals suspended in water gives β type crystals) | change of crystal type during grinding [4] |
| --- | --- | --- | --- | --- | --- | --- | --- |
| C[C@@H](c1ccc(-c2ccccc2)c(F)c1)c1cc(/N=C(/N)N2CCOCC2)on1 [β type crystals, 3-[(1S)-1-(2-fluorobiphenyl-4-yl)ethyl]-5-{[amino(morpholin-4-yl)methylene]amino}isoxazole] | 0.00 | 10.2 | 4.7 | 3.2 | 1.7 | thermodynamically more stable than the α type crystals | did not change the crystal type |
| C[C@@H](c1ccc(-c2ccccc2)c(F)c1)c1cc(/N=C(/N)N2CCOCC2)on1 [α type crystals, 3-[(1S)-1-(2-fluorobiphenyl-4-yl)ethyl]-5-{[amino(morpholin-4-yl)methylene]amino}isoxazole] | 2.06 | 79.3 | 27.6 | 58.1 | 26.1 | – | changed to the β type crystals |
